Source: patent US20200124597A1, “INDICATOR RELEASE SYSTEM FOR THE DETECTION OF AN ANALYTE IN A FOODSTUFF, TEST STRIP THEREFOR, AND ANALYSIS METHOD” (Bundesrepublik Deutschland, vertreten durch die …, priority 2017, published 2020)

Experiments:
[1] = test system: rabbit antisera against the hapten sulfathiazole (STZ), capping antibody; assay: Fluorescence of supernatants of M4-A1@B (SRB-loaded, antibody-gated MCM-41) suspensions after adding STZ prepared in milk; format: binding; settings: M4-A1@B suspension in PBS, STZ solutions prepared in milk, λem=585 nm, λexc=560 nm, logistic fit
Experimental: The pores of the particles were filled with the dye sulforhodamine B (SRB). With the aim of loading the maximum amount of dye into the MCM-41 scaffold, a solution of the dye SRB sodium salt (2 mmol L^−1) was prepared in acetonitrile. Then, 2 portions of 12.0 mL were added to 300 mg of each MCM-41 nano- or microparticle material, yielding a suspension with a concentration of 0.8 mmol dye (g solid)^−1. The suspension was stirred for 24 h at room temperature. Two fractions of each type of material (2×40 mL) were centrifuged (5 min at 6000 rpm) and concentrated in a final volume of 1.5 mL. Thereafter, volumes of 0.14 mL and 0.7 mL of hapten solution (0.02 and 0.01 mmol) in DMF were added, arriving at final suspensions of 0.2 and 0.1 mmol (g solid)^−1. The resulting suspensions were stirred for 5.5 h at room temperature. Finally, the suspensions were centrifuged (5 min at 6000 rpm), and the solids obtained were washed with acetonitrile (0.75 mL), isolated by centrifugation, and dried at 35° C. in vacuum during 12 h. […]
The fluorescence enhancement caused by STZ at different concentrations was assessed in milk as well. […] Then, 6 μL of STZ solutions of different concentrations were added to the other fractions, the vials shaken by hand for 20 s and centrifuged before measuring the fluorescence of the supernatants in a fluorometer (λem=585 nm, λexc=560 nm).

[2] = test system: rabbit antisera against the hapten sulfathiazole (STZ), capping antibody; assay: Lateral flow test strips spotted with M4-A1@B, developed in raw milk spiked with STZ, fluorescence reader; format: binding; settings: M4-A1@B on nitrocellulose strips, ratio FB/(FA+FB) with lateral flow reader, data considerably noisy
Excerpt: As explained above, after development the strips show two different zones, a first one (zone A) at which the sensing material (indicator reservoir) has been deposited, and a second one (zone B) in which the released dye is collected that could travel with the solvent front (see FIGS. 2, 7).
In case of absence of a sulfonamide, the second zone (zone B in FIG. 7) should show minimum signal. In case of presence, the fluorescence in that zone should correlate with analyte concentration. The amount of dye released can be quantified with a fluorescence reader with appropriate excitation and emission wavelengths or by taking pictures under proper light excitation conditions. Strips were prepared using a Hi-Flow nitrocellulose paper from Millipore®. […]
Afterwards, the strips were dipped into 150 μL of raw milk spiked with various amounts of STZ, developed and let dried at room temperature. […] Afterwards, the fluorescence histograms were registered with a lateral flow reader and a home-made housing equipped with an LED (λexc 505 nm) as excitation source and filters (532 nm cut-off and 550 nm long-pass) that can be fitted to a conventional digital camera. […] FIG. 6 c) (luminance of dye released in second zone and FIG. 6 d) (ratio of luminance) allows to compare the reader results with those obtained by extracting the luminance from images taken with a camera. […]

[3] = test system: rabbit antisera against the hapten sulfathiazole (STZ), capping antibody; assay: Fluorescence of supernatants of M7-A1@B (BODIPY-PEG-loaded, antibody-gated) suspensions in milk; format: binding; settings: M7-A1@B suspension in milk, 10 min, 535 nm (λexc=515 nm), logistic fit
Experimental: (§1) Capping of the material was performed following the same conditions as for the preparation of M4-A1 @B, but in this case 1 mg of the mesoporous silica was suspended in 450 μL of PBS containing 360 ppm of BODIPY-PEG and 2 μL of the serum for 30 min. Thereafter, 50 μL of BSA solution (5%) were added to the suspensions and stirred for another 1.5 h. […] Before centrifuging the suspension in the last washing cycle, it was divided into 10 fractions, which were dried separately for 1 h in the vacuum at room temperature and stored in the fridge, yielding 10 fractions of ca. 100 μg of M7-A1@B.
In an attempt to avoid the extraction process, and with the aim to compare the effect of different dyes to M4-A1 @B, respectively, first of all the material M7-A1@B was tested in absence and in presence of several amounts of STZ following similar a procedure as explained previously. For that purpose, two independent experiments were performed, using in one case milk provided from FOSS stored in the fridge (6 d) and fresh milk from Poland (1 d in the fridge). […] Then, 20 μL of STZ solutions of different concentrations were added to the rest of the fractions (80 μL), the vials were shaken in the thermomixer at 800 rpm for 10 min, centrifuged and the fluorescence of the supernatants measured at 535 nm with λexc=515 nm (FIG. 9).

[4] = test system: rabbit antisera against the hapten sulfathiazole (STZ), capping antibody; assay: Biphasic extraction assay: fluorescence of CHCl3 phase after dye extraction from M7-A1@B suspensions in raw milk; format: binding
Experimental: as §1
Next, the effect of the concentration of STZ and SPY was studied. For this purpose, we repeated the procedure but added different concentrations of the corresponding sulfonamide into each fraction and took an aliquot from the chloroform phase after 10 min of reaction (FIG. 10). In this case, milk stored in the fridge for 5 and 7 d was used. It is obvious that a highly sensitive response could be found in both cases, with an LOQ of 0.5±0.1 ppb and an IC50 of 0.8±0.1 ppb for STZ. For SPY, both the fluorescence increase and the sensitivity are lower (LOQ: 4.6±2.2 ppb, IC50: 16.2±6.9 ppb).
The red points were classified as outliers and not considered in the fit (N=2, only one repetition shown).
The sensitivity could further be improved by increasing the number of washing cycles of the material before use, although the fluorescence enhancement is lower due to partial dye removal during continued washing. […] Furthermore, the amount of dye released in the working range of the assay at lower STZ concentrations (100 ppt) is at least 100 times higher, preferably 200-times higher than that of antibody displaced, decreasing to 80-times at concentrations higher than 50 ppb, which is a remarkable sign of signal amplification especially in the desired low-concentration range.

[5] = Dye partitioning from water/milk to CHCl3; format: physicochemical; settings: phase transfer from water/milk to CHCl3
Experimental: as §1

[6] = M7-A1@B in raw milk, CHCl3 phase, 10 min reaction, 538 nm (λexc=515 nm)
[7] = M7-A1@B, increased number of washing cycles of the material before use

Row | IC50 [2] | IC50 [3] [ppb] | IC50 [4, 6] [ppb] | IC50 [4, 7] [ppb] | SMILES | IC20, i.e. limit of quantification (LOQ) [1] [ppb] | IC50 [1] [ppb] | limit of quantification (LOQ) [3] [ppt] | LOQ [4, 6] [ppb] | LOQ [4, 7] [ppb] | dye partitioning coefficient [5]
1 | below 1 ppb | 1.5±1.4 | 0.8±0.1 | 0.28±0.15 | Nc1ccc(S(=O)(=O)Nc2nccs2)cc1 [STZ, sulfathiazole] | 87±8 | 172±12 | 65±18 | 0.5±0.1 | 0.02±0.01 | –
2 | – | – | 16.2±6.9 | 4.4±1.7 | Nc1ccc(S(=O)(=O)Nc2ccccn2)cc1 [SPY, sulfapyridine] | – | – | – | 4.6±2.2 | 0.78±0.38 | –
3 | – | – | – | – | CCN(CC)c1ccc2c(-c3ccc(S(=O)(=O)O)cc3S(=O)(=O)[O-])c3ccc(=[N+](CC)CC)cc-3oc2c1 [sulforhodamine B] | – | – | – | – | – | too low to undergo efficient phase transfer
